Each structure is given as a SMILES string. Some results are limits rather than exact numbers.

This passage reports GI50 and IC50 results from US20240245694A1, “Tricyclic Compounds and their Uses” (Novartis AG, priority 2022, published 2024).

For assay [1], the system named is DLD1-WRN-KO cells. Description: Proliferation assay DLD1-WRN-KO (CellTiterGlo, 96 hours), off-target effects. In kind it is cell-based. The following applies: Homo sapiens. The method, boiled down:
(§1)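 Cells in RPMI-1640/10% FCS were seeded overnight (SW48 2'000, DLD1-WRN-KO 1'500 cells/well), then exposed to eight 3-fold compound dilutions at 0.1% DMSO. ATP luminescence relative to a day-0 plate gives % growth (0% stasis, −100% complete kill). GI50 is the geometric mean of ≥2 independent replicates.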
A general note: In ATP-based viability assays light output follows the ATP content of the culture.

Assay [2] deals with SW48 cells. Description: Proliferation assay SW48 (CellTiterGlo, 96 hours). In kind it is cell-based. Conditions: Homo sapiens. The method, boiled down:
as §1

Assay [3] deals with WRN helicase (core helicase motif aa N517-P1238) (Homo sapiens (Human), UniProt Q14191). Description: WRN ATPase assay (ADP-Glo), DNA dependent ATP hydrolysis. The class given is biochemical. The following applies: 3 hours pre-incubation, 300 micromolar ATP, FLAP26 ssDNA; geometric means of at least 2 determinations. The method, boiled down: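 Uses the WRN core helicase (aa N517-P1238) with single-strand 45-mer FLAP26 DNA in Tris pH 7.5, MgCl2, NaCl, BSA and pluronic buffer. Compound was pre-incubated 3 h with enzyme and ATP; reaction then run with 10 nM WRN, 0.2 nM FLAP26 and 300 µM ATP for 30 min at room temperature. ADP quantified by ADP-Glo luminescence; IC50 from duplicate 4-parameter fits, geometric mean of ≥2 runs.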
Chain of WRN helicase (core helicase motif aa N517-P1238) (Q14191 517-1238): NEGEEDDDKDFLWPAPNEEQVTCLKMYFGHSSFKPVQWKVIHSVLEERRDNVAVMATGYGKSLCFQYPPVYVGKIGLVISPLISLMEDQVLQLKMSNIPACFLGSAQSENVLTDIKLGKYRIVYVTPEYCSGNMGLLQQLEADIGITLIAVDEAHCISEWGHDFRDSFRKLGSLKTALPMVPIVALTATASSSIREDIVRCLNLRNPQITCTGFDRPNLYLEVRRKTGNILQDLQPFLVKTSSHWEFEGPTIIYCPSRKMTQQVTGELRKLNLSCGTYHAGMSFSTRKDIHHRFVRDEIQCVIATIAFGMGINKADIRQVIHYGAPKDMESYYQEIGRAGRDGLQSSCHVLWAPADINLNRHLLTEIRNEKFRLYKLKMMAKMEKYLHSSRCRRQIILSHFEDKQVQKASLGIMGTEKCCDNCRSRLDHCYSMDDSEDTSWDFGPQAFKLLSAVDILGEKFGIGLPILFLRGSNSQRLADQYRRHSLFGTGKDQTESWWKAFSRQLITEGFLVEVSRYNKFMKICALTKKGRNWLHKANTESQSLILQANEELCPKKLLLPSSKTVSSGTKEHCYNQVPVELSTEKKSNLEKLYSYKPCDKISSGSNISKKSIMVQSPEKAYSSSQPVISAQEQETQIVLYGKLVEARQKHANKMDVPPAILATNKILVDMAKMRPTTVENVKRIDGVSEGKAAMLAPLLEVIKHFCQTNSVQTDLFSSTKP

One may read the GI50 as the concentration at which growth is held to half of that of the control. High values mean lower sensitivity of the cells, low ones greater sensitivity of the cells. Broadly, the IC50 is the concentration that gives 50% inhibition. A lower IC50 goes with higher potency. On to `Cc1ncnc(C(=O)N2CCN(c3c4n(c5nc(C6=CCOCC6)nn5c3=O)[C@@H](C(=O)Nc3ccc(C(F)(F)F)cc3Cl)C[C@@H]4C)C[C@H]2C)c1O` [Example 18D, (7S,9R)—N-(2-chloro-4-(trifluoromethyl)phenyl)-2-(3,6-dihydro-2H-pyran-4-yl)-6-((R)-4-(5-hydroxy-6-methylpyrimidine-4-carbonyl)-3-methylpiperazin-1-yl)-7-methyl-5-oxo-5,7,8,9-tetrahydropyrrolo[1,2-c][1,2,4]triazolo[1,5-a]pyrimidine-9-carboxamide], for which the concentration for 50% growth inhibition (GI50) in assay [1] was over 10000 nM; in assay [2], 500 nM. The molecule further showed a half-maximal inhibitory concentration (IC50) in assay [3] of 100 nM.
`Cc1ncnc(C(=O)N2CCN(c3c4n(c5nc(C6=CCOCC6)nn5c3=O)[C@@H](C(=O)Nc3ccc(C(F)(F)F)cc3Cl)C[C@H]4C)CC2)c1O` [Example 14A, (7R,9R)—N-(2-chloro-4-(trifluoromethyl)phenyl)-2-(3,6-dihydro-2H-pyran-4-yl)-6-(4-(5-hydroxy-6-methylpyrimidine-4-carbonyl)piperazin-1-yl)-7-methyl-5-oxo-5,7,8,9-tetrahydropyrrolo[1,2-c][1,2,4]triazolo[1,5-a]pyrimidine-9-carboxamide]: the 50% growth inhibitory concentration (GI50) in assay [1] was over 10000 nM; in assay [2] it was 20 nM. Also, in assay [3], inhibition was half-maximal at 40 nM (IC50).
For `Cc1ncnc(C(=O)N2CCN(c3c4n(c5nc(C6=CCOCC6)nn5c3=O)[C@@H](C(=O)Nc3ccc(C(F)(F)F)nc3Cl)C[C@H]4C)CC2)c1O` [Example 4A, (7R,9R)—N-(2-chloro-6-(trifluoromethyl)pyridin-3-yl)-2-(3,6-dihydro-2H-pyran-4-yl)-6-(4-(5-hydroxy-6-methylpyrimidine-4-carbonyl)piperazin-1-yl)-7-methyl-5-oxo-5,7,8,9-tetrahydropyrrolo[1,2-c][1,2,4]triazolo[1,5-a]pyrimidine-9-carboxamide], the 50% growth inhibitory concentration (GI50) was over 10000 nM in assay [1] and 100 nM in assay [2]. In assay [3], this molecule gave an IC50 of 90 nM.
For `Cc1cc(C(F)(F)F)ccc1NC(=O)[C@H]1C[C@@H](C)c2c(N3CCN(C(=O)c4nccc(F)c4O)CC3)c(=O)n3nc(C4=CCOCC4)nc3n21` [Example 16, (7R,9R)-2-(3,6-dihydro-2H-pyran-4-yl)-6-(4-(4-fluoro-3-hydroxypicolinoyl)piperazin-1-yl)-7-methyl-N-(2-methyl-4-(trifluoromethyl)phenyl)-5-oxo-5,7,8,9-tetrahydropyrrolo[1,2-c][1,2,4]triazolo[1,5-a]pyrimidine-9-carboxamide], in that order: over 10000 nM, 10 nM and 40 nM.
The corresponding values for `C[C@H]1C[C@@H](C(=O)Nc2ccc(C(F)(F)F)cc2Cl)n2c1c(N1CCN(C(=O)c3nccc(F)c3O)CC1)c(=O)n1nc(C3=CCOCC3)nc21` [Example 6B, (7S,9S)—N-(2-chloro-4-(trifluoromethyl)phenyl)-2-(3,6-dihydro-2H-pyran-4-yl)-6-(4-(4-fluoro-3-hydroxypicolinoyl)piperazin-1-yl)-7-methyl-5-oxo-5,7,8,9-tetrahydropyrrolo[1,2-c][1,2,4]triazolo[1,5-a]pyrimidine-9-carboxamide] are over 10000 nM, 3000 nM and 2000 nM.
The corresponding values for `Cc1ncnc(C(=O)N2CCN(c3c4n(c5nc(N6CCOCC6)nn5c3=O)[C@@H](C(=O)Nc3ccc(C(F)(F)F)cc3Cl)C[C@H]4C)CC2)c1O` [Example 2A, (7R,9R)—N-(2-chloro-4-(trifluoromethyl)phenyl)-6-(4-(5-hydroxy-6-methylpyrimidine-4-carbonyl)piperazin-1-yl)-7-methyl-2-morpholino-5-oxo-5,7,8,9-tetrahydropyrrolo[1,2-c][1,2,4]triazolo[1,5-a]pyrimidine-9-carboxamide] are over 10000 nM, 40 nM and 20 nM.
Turning to `Cc1ncnc(C(=O)N2CCN(c3c4n(c5nc(C6=CCOCC6)nn5c3=O)[C@@H](C(=O)Nc3ccc(C(F)(F)F)cc3Cl)C[C@@H]4C)CC2)c1O` [Example 14C, (7S,9R)—N-(2-chloro-4-(trifluoromethyl)phenyl)-2-(3,6-dihydro-2H-pyran-4-yl)-6-(4-(5-hydroxy-6-methylpyrimidine-4-carbonyl)piperazin-1-yl)-7-methyl-5-oxo-5,7,8,9-tetrahydropyrrolo[1,2-c][1,2,4]triazolo[1,5-a]pyrimidine-9-carboxamide], the values for the concentration for 50% growth inhibition (GI50) in assay [1] and in assay [2] were over 10000 nM and 300 nM, respectively. This molecule also showed an IC50 in assay [3] of 100 nM.
For `C[C@@H]1C[C@@H](C(=O)Nc2ccc(C(F)(F)F)cc2Cl)n2c1c(N1CCN(C(=O)c3nccc(Cl)c3O)CC1)c(=O)n1nc(N3CCOCC3)nc21` [Example 1D, (7R,9S)-6-(4-(4-chloro-3-hydroxypicolinoyl)piperazin-1-yl)-N-(2-chloro-4-(trifluoromethyl)phenyl)-7-methyl-2-morpholino-5-oxo-5,7,8,9-tetrahydropyrrolo[1,2-c][1,2,4]triazolo[1,5-a]pyrimidine-9-carboxamide], in that order: over 10000 nM, 5000 nM and 3000 nM.
